ChEMBL document CHEMBL3797139, “Synthesis and biological evaluation of 1,2-dithiol-3-thiones and pyrrolo[1,2-a]pyrazines as novel hypoxia inducible factor-1 (HIF-1) inhibitor” (Bioorg Med Chem, 2016)
The source made the active and inactive calls. No cut-off for these calls is given here.

Columns and labels:
[1] = Cytotoxicity against human HCT116 cells at 10 uM; format: cell-based; settings: hct-116, 10 µM
HCT-116 [2] = experiment: Reduction of insulin-induced HIF-1 alpha target gene expression in human HCT116 cells assessed as decrease in VEGF expression at 10 uM by RT-PCR analysis; format: functional
HCT-116 [3] = experiment: Reduction of insulin-induced HIF-1 alpha expression in human HCT116 cells at 10 uM by western blot analysis; format: functional; settings: for inhibition at 10 µM: Homo sapiens, HCT-116
HCT-116 [4] = experiment: Reduction of insulin-induced HIF-1 alpha target gene expression in human HCT116 cells assessed as decrease in Glut-1 expression at 10 uM by RT-PCR analysis; format: functional; settings: for inhibition at 10 µM: Homo sapiens, HCT-116
[5] = Cytotoxicity against human HCT116 cells at 30 uM; format: cell-based; settings: hct-116, 30 µM
HCT-116 [6] = experiment: Reduction of insulin-induced HIF-1 alpha expression in human HCT116 cells at 3 uM by western blot analysis; format: functional, cell-based
[7] = Cytotoxicity against human HCT116 cells at 3 uM; format: cell-based; settings: hct-116, 3 µM
HCT-116 [8] = experiment: Reduction of insulin-induced HIF-1 alpha target gene expression in human HCT116 cells assessed as decrease in VEGF expression at 30 uM by RT-PCR analysis; format: functional
HCT-116 [9] = experiment: Reduction of insulin-induced HIF-1 alpha target gene expression in human HCT116 cells assessed as decrease in Glut-1 expression at 30 uM by RT-PCR analysis; format: functional
HCT-116 [10] = experiment: Reduction of insulin-induced HIF-1 alpha expression in human HCT116 cells at 30 uM by western blot analysis; format: functional

## CCCCc1c(SC)c2cnccn2c1SC.Cl
[1]
  Activity: Non-toxic

## CCCc1c(SC)c2cnccn2c1SC.Cl
HCT-116 [2]
  inhibition: Active
HCT-116 [3]
  inhibition at 10 µM: 90%
[1]
  Activity: Non-toxic
HCT-116 [4]
  inhibition: Active

## COc1ccc(Cc2c(-c3cnccn3)ssc2=S)cc1
[5]
  Activity: Non-toxic

## CSc1c(C)c(SC)n2ccncc12.Cl
HCT-116 [3]
  inhibition (INH): 37%
[1]
  Activity: Non-toxic
HCT-116 [4]
  inhibition (INH): 14%

## CSc1c(C)c(SC)n2ccncc12 [listing 1 of 2 here]
HCT-116 [3]
  inhibition at 10 µM: 37%
HCT-116 [4]
  inhibition at 10 µM: 14%

## S=c1cc(-c2cnccn2)ss1
[5]
  Activity: Toxic

## CSc1c(CCc2ccccc2)c(SC)n2ccncc12.Cl
HCT-116 [3]
  inhibition at 10 µM: 87%
[1]
  Activity: Toxic

## CC[C@@]1(O)C(=O)OCc2c1cc1n(c2=O)Cc2cc3c(CN(C)C)c(O)ccc3nc2-1 [TOPOTECAN]
HCT-116 [6]
  inhibition: Active
[7]
  Activity: Non-toxic

## S=c1ssc(-c2cnccn2)c1Cc1ccc(Cl)cc1
[5]
  Activity: Non-toxic

## Cc1ccc(Cc2c(-c3cnccn3)ssc2=S)cc1
[5]
  Activity: Non-toxic

## CCc1c(-c2cnccn2)ssc1=S
[5]
  Activity: Non-toxic

## CSc1c(SC)c2cnccn2c1SC.Cl
HCT-116 [3]
  inhibition at 10 µM: 6%
[1]
  Activity: Non-toxic

## CSc1c(Cc2ccc(C)cc2)c(SC)n2ccncc12.Cl
[1]
  Activity: Toxic

## S=c1ssc(-c2cnccn2)c1-c1ccccc1
[5]
  Activity: Non-toxic
HCT-116 [8]
  inhibition: Active
HCT-116 [9]
  inhibition: Active
HCT-116 [10]
  inhibition at 30 µM: 8%

## CSc1c(Cc2ccc(Cl)cc2)c(SC)n2ccncc12.Cl
[1]
  Activity: Toxic

## CSc1c(-c2ccccc2)c(SC)n2ccncc12.Cl
HCT-116 [2]
  inhibition: Active
HCT-116 [3]
  inhibition at 10 µM: 3%
[1]
  Activity: Non-toxic
HCT-116 [4]
  inhibition: Active

## CCc1c(SC)c2cnccn2c1SC.Cl
HCT-116 [3]
  inhibition at 10 µM: 86%
[1]
  Activity: Non-toxic

## CCCCc1c(-c2cnccn2)ssc1=S
[5]
  Activity: Non-toxic
HCT-116 [10]
  inhibition at 30 µM: 80%

## OCc1ccc(-c2nn(Cc3ccccc3)c3ccccc23)o1
HCT-116 [6]
  inhibition: Active
[7]
  Activity: Non-toxic

## CSc1cc(SC)n2ccncc12.Cl
[1]
  Activity: Non-toxic

## Cc1c(-c2cnccn2)ssc1=S [OLTIPRAZ]
[5]
  Activity: Non-toxic
HCT-116 [8]
  inhibition at 30 µM: 36%
HCT-116 [9]
  inhibition at 30 µM: 59%
HCT-116 [10]
  inhibition at 30 µM: 48%

## CCCc1c(-c2cnccn2)ssc1=S
[5]
  Activity: Non-toxic
HCT-116 [8]
  inhibition at 30 µM: 70%
HCT-116 [9]
  inhibition at 30 µM: 86%
HCT-116 [10]
  inhibition at 30 µM: 76%

## S=c1ssc(-c2cnccn2)c1Cc1ccccc1
[5]
  Activity: Non-toxic
HCT-116 [10]
  inhibition at 30 µM: 41%

## CSc1c(C)c(SC)n2ccncc12 [listing 2 of 2 here]
HCT-116 [2]
  inhibition: inactive

## COc1ccc(Cc2c(SC)c3cnccn3c2SC)cc1.Cl
[1]
  Activity: Toxic

## CSc1c(Cc2ccccc2)c(SC)n2ccncc12.Cl
HCT-116 [2]
  inhibition at 10 µM: 77%
HCT-116 [3]
  inhibition at 10 µM: 81%
[1]
  Activity: Non-toxic
HCT-116 [4]
  inhibition at 10 µM: 92%

## S=c1ssc(-c2cnccn2)c1CCc1ccccc1
[5]
  Activity: Non-toxic
HCT-116 [10]
  inhibition at 30 µM: 65%
